This is an account of results in publication PMC8151276, “An Integrated Approach toward NanoBRET Tracers for Analysis of GPCR Ligand Engagement” (Molecules, 2021).

What all share (type): binding
One assay addresses T1, PTGER2 (Homo sapiens, UniProt P43116).
T1 construct: purchased Promega (in-house HiBiT-GPCR construct library, NanoBRET)
Kind of assay: NanoBRET screen HiBiT-PTGER2 in HEK293. As for the experimental part: (§1) Each tracer candidate was screened across the entire library of HiBiT-GPCR constructs using NanoBRET as the detection modality. As depicted in Figure 4A, the specificity of interactions was evaluated through decrease in BRET due to competitive displacement of a bound tracer by excess parental compound. Each tracer was analyzed for binding to each HiBiT-GPCR fusion in the absence and in the presence of competing parental compound. Briefly, HEK293 cells were transfected with HiBiT-GPCR constructs diluted into promoterless DNA to reduce expression and maximize translocation to the cell surface. Each tracer candidate was then screened at concentrations of 1 μM and 0.1 μM across cells expressing these fusions. Cells were treated for 1.5 h with tracer either alone or in the presence of 20 μM competing parental compound (i.e., control). BRET was measured upon addition of purified LgBiT and subsequent complementation with HiBiT genetically fused to a GPCR. The specificity of interactions was assessed through a decrease in BRET signal due to competitive displacement of the bound tracer. To further gauge the robustness of these interactions, the fold response over the control (i.e., BRETtracer/BRETcontrol) was calculated. We chose a 1.5-fold response, which translates to ≥7-fold signal over noise as the minimal threshold required to score an interaction as positive. […]. Below we highlight the screening results obtained for our exemplary fluorescent tracers based on Clozapine, Amitriptyline and AZD1283.
(§2) HiBiT-GPCR DNA constructs were diluted in 10 mM Tris pH 8 to a final concentration of 0.01 μg/μL, arrayed in 96-well plates and stored at −20 °C. For transfection, HEK293 cells were suspended in Opti-MEM (without phenol red) supplemented with 2% fetal bovine serum (Seradigm) and 100 units/mL penicillin–streptomycin (Gibco) at a final concentration of 220,000 cells/mL and dispensed into white 96-well plates at 90 μL/well. Subsequent transfections and screens were carried using an Agilent Bravo Automated Liquid Handling Platform. First, the 96-well HiBiT DNA arrays were diluted 25-fold in Opti-MEM (without serum or phenol red) to a final concentration of 0.0004 μg/μL and 20 μL of the diluted DNAs were transferred into new 96-well plates. Next, promoterless carrier DNA (1 μg/μL) was diluted 25-fold (0.04 μg/μL) and then dispensed into the diluted arrays at 20 μL/well. Following brief mixing, Viafect transfection reagent (Promega) diluted 16-fold into Opti-MEM was dispensed into the plates at 40 μL/well. After mixing by pipetting, plates were incubated for 10 min on the pipetting station deck. The DNA-transfection reagent complexes were then added to plates containing cells. To facilitate the screen, 10 μL of DNA-transfection reagent complexes were added in duplicates to the top 4 and bottom 4 rows, resulting in two identical 48-well arrays per plate. Plates with transfected cells were incubated for 18–20 h at 37 °C/5% CO2. A screen of each tracer across the entire library using two different concentrations requires duplicate plates of transfected cells. Depending on the number of tracers being screened, transfections can be scaled up using the same ratios. The next day, for each tracer, four 20× screening solutions in tracer dilution buffer (Promega) were prepared: two duplicates at final concentration of 20 μM and two duplicates at a final concentration of 2 μM. A competing unmodified compound was added to one of each duplicate at a final concentration of 400 μM. The four resulting solutions were diluted 4-fold in Opti-MEM without serum or phenol red to generate 5× solutions (5 µM and 0.5 µM tracer +/− 100 μM competing compound). To screen the library, a BioTek MultiFlo FX liquid dispenser was used to dispense 22.5 µL of tracer solution to the top 4 rows and 22.5 µL tracer + competing compound solution to the 4 bottom rows. Plates were briefly mixed on an orbital shaker and incubated for 1.5 h at room temperature. […]
On the technique in general: Bioluminescence resonance energy transfer reports proximity on the nanometre scale.

The target of another assay is T2, F2R (Homo sapiens, UniProt P25116).
T2 construct: purchased Promega (in-house HiBiT-GPCR construct library, NanoBRET)
T2 sequence (P25116 22-425): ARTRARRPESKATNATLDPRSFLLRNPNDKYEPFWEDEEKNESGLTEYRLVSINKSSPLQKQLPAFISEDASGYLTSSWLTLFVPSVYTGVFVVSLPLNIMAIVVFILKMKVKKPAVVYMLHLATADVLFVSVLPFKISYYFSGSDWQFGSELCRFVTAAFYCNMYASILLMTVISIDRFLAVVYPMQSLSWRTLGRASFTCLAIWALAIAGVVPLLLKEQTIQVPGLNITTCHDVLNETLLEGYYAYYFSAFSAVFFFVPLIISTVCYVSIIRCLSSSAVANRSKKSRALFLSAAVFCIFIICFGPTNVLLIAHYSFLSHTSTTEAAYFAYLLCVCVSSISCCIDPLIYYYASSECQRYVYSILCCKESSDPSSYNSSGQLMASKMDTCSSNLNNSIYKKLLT
Kind of assay: NanoBRET screen HiBiT-F2R in HEK293. As to the method: as §1, §2

A further assay concerns the target T3, NPBWR2 (Homo sapiens, UniProt P48146).
T3 construct: purchased Promega (in-house HiBiT-GPCR construct library, NanoBRET)
Kind of assay: NanoBRET screen HiBiT-NPBWR2 in HEK293. As to the method:
as §1, §2

The next assay deals with T4, NPY1R (Homo sapiens, UniProt P25929).
T4 construct: purchased Promega (in-house HiBiT-GPCR construct library, NanoBRET)
T4 sequence (P25929 1-384): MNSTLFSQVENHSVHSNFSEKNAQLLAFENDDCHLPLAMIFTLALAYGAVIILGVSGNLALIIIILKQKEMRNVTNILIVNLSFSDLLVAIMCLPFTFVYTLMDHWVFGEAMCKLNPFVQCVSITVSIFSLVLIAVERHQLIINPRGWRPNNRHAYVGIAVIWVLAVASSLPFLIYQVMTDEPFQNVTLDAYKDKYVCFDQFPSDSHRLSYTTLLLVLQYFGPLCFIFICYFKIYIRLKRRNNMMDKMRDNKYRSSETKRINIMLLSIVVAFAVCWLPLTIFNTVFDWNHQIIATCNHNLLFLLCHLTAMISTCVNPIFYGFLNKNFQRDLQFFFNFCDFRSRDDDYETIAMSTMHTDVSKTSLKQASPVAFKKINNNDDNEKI
Kind of assay: NanoBRET screen HiBiT-NPY1R in HEK293. As to the method: as §1, §2

The next assay addresses T5, P2RY12 (Homo sapiens, UniProt Q9H244).
T5 construct: purchased Promega (in-house HiBiT-GPCR construct library, NanoBRET)
The assay is described as follows: NanoBRET screen HiBiT-P2RY12 in HEK293. As for the experimental part: as §1, §2

Where [1] appears, read: tracer at 0.1μM, listed as amitriptyline-b-2-NB590.
Setting [2] is: tracer at 1μM, listed as amitriptyline-b-2-NB590.

T5 sequence (Q9H244 whole entry, one chain of several): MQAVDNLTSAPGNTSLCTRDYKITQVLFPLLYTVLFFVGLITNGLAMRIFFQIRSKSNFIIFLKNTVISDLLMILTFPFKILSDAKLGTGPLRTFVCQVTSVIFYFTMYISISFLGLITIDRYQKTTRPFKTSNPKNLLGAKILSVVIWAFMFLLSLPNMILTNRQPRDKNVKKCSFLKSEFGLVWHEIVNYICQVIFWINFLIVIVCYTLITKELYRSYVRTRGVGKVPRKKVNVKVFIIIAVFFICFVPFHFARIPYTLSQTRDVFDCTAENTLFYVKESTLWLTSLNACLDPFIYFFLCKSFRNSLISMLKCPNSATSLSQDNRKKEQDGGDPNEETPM
T1 sequence (P43116 whole entry): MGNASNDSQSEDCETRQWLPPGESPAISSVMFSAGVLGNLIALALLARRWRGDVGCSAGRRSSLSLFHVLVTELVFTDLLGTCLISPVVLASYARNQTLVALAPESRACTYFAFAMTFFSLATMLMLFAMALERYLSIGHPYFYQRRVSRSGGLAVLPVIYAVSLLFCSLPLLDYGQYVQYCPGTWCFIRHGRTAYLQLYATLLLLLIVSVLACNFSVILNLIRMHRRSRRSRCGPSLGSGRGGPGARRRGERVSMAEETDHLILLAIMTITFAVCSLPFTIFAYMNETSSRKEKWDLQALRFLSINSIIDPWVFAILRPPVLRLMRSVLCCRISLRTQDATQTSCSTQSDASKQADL
T3 sequence (P48146 whole entry): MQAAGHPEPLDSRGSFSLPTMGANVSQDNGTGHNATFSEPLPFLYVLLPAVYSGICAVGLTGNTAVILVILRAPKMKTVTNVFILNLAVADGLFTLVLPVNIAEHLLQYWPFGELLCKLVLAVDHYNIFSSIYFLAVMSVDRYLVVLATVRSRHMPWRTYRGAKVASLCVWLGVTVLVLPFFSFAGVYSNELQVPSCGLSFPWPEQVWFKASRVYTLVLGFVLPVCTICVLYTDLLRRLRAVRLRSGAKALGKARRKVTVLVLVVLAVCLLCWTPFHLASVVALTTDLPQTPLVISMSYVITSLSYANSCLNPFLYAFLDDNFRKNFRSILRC

As to `Cc1cc2c(s1)Nc1ccccc1N=C2N1CCN(CCCNC(=O)CCOCCOCCOCCOCCNC(=O)CCc2ccc3n2[B-](F)(F)[N+]2=C(c4ccc[nH]4)C=CC2=C3)CC1` [Olanzapine-a-2-NB590], the “NanoBRET Fold Response” value was determined as 1.03 at PTGER2 (PTGER2, tracer 0.1μM); 0.98 on PTGER2 (PTGER2, tracer 1μM); 1.01 on F2R (F2R, tracer 0.1μM); 0.90 on F2R (F2R, tracer 1μM); 0.98 on NPBWR2 (NPBWR2, tracer 0.1μM); 1.02 on NPBWR2 (NPBWR2, tracer 1μM). For the same compound, the “NanoBRET Fold Response” value on NPY1R (NPY1R, tracer 0.1μM) is on record as 1.02; at NPY1R (NPY1R, tracer 1μM), 1.02; at P2RY12 (P2RY12, tracer 0.1μM), 0.98; at P2RY12 (P2RY12, tracer 1μM) it was 0.97.
For `N#CN=C(NCCCOc1cccc(CN2CCCCC2)c1)NCCNC(=O)CCOCCOCCOCCOCCNC(=O)CCc1ccc2n1[B-](F)(F)[N+]1=C(c3ccc[nH]3)C=CC1=C2` [Aminopotentidine-2-NB590], the “NanoBRET Fold Response” value on PTGER2 (PTGER2, tracer 0.1μM) is on record as 0.99; on PTGER2 (PTGER2, tracer 1μM) it was 1.03; at F2R (F2R, tracer 0.1μM), 1.06; at F2R (F2R, tracer 1μM), 1.00; at NPBWR2 (NPBWR2, tracer 0.1μM) it was 1.04; on NPBWR2 (NPBWR2, tracer 1μM), 0.92. For the same compound, the “NanoBRET Fold Response” value at NPY1R (NPY1R, tracer 0.1μM) was found to be 0.99; on NPY1R (NPY1R, tracer 1μM), 1.01; at P2RY12 (P2RY12, tracer 0.1μM), 0.94; on P2RY12 (P2RY12, tracer 1μM), 0.99.
For `Cc1nc2n(c(=O)c1CCN1CCC(c3noc4cc(F)ccc34)CC1)CCCC2OC(=O)NCCOCCOCCOCCOCCNC(=O)CCc1ccc2n1[B-](F)(F)[N+]1=C(c3ccc[nH]3)C=CC1=C2` (stereo not drawn) [Risperidone-2-NB590], the “NanoBRET Fold Response” value on PTGER2 (PTGER2, tracer 0.1μM) was 1.01; at PTGER2 (PTGER2, tracer 1μM), 1.05; on F2R (F2R, tracer 0.1μM) it was 0.97; on F2R (F2R, tracer 1μM) it was 0.78; on NPBWR2 (NPBWR2, tracer 0.1μM) it was 1.05; at NPBWR2 (NPBWR2, tracer 1μM) it was 1.00. Also, the “NanoBRET Fold Response” value on NPY1R (NPY1R, tracer 0.1μM) was found to be 0.88; at NPY1R (NPY1R, tracer 1μM), 0.99; on P2RY12 (P2RY12, tracer 0.1μM), 1.05; at P2RY12 (P2RY12, tracer 1μM) it was 0.95.
Take `CN(C)CCC=C1c2ccccc2CCc2ccc(C(=O)NCCNC(=O)CCOCCOCCOCCOCCNC(=O)CCc3ccc4n3[B-](F)(F)[N+]3=C(c5ccc[nH]5)C=CC3=C4)cc21` [Amitriptyline-b-2-NB590]: the “NanoBRET Fold Response” value on PTGER2 (tracer at 0.1μM) was determined as 1.01; on PTGER2 (tracer at 1μM) it was 1.01; at F2R (setting [1]), 0.76; on F2R (setting [2]), 0.97; at NPBWR2 (tracer at 0.1μM) it was 1.01; on NPBWR2 (tracer at 1μM), 0.95. The “NanoBRET Fold Response” value on NPY1R (setting [1]) was found to be 0.90; at NPY1R (setting [2]) it was 1.11; at P2RY12 (setting [1]) it was 0.96.
